Our source for the IC50 values is BindingDB's records for patent US11053253 (Achillion Pharmaceuticals, 2021).

SMILES strings stand for the structures. Where only a bound is given, the exact number is not on record here.

Complement factor D, sequence (P00746 whole entry): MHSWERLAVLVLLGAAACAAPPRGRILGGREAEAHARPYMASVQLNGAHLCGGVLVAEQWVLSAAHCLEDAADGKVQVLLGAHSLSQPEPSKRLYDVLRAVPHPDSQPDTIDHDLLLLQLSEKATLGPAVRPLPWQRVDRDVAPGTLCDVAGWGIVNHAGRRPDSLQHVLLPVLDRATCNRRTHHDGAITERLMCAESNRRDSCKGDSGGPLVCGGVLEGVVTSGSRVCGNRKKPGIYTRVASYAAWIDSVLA

The experiment concerns the target Complement factor D (Homo sapiens, UniProt P00746). In words: Human Factor D Assay. As to the method: Human Factor D (purified from human serum, Complement Technology, Inc.) at 80 nM final concentration is incubated with test compound at various concentrations for 5 min at room temperature in 50 mM Tris, 1M NaCl, pH 7.5. A synthetic substrate Z-L-Lys-SBzl and DTNB (Ellman's reagent) are added to final concentrations of 100 µM each. Absorbance at 405 nm (A405) is recorded at 30 second intervals for 30 minutes using a microplate spectrophotometer. IC50 values are calculated by nonlinear regression of Complement Factor D reaction rates as a function of test compound concentration.
`CC(=O)c1nn(CC(=O)N2[C@H]3C[C@@]4(C=CCCCN(C)S(=O)(=O)Cc5ccc(Br)nc5NC3=O)C[C@@H]24)c2c(C)cc(-c3cnc(C)nc3)cc12` [US11053253, Cmp No. T-216] had an IC50 of under 1000 nM.
The value for `CC(=O)c1nn(CC(=O)N2[C@H]3C[C@]4(C[C@@H]24)Cn2ccc(n2)/C=C/COCc2ccc(Br)nc2NC3=O)c2ccc(-c3cnc(C)nc3)cc12` [US11053253, Cmp No. T-67] was under 1000 nM; that for `CC(=O)c1nn(CC(=O)N2[C@H]3C[C@@]4(COCC=CCOCc5cc(Br)nc(c5)NC3=O)C[C@@H]24)c2cnc(-c3cnc(C)nc3)cc12` [US11053253, Cmp No. T-83] was under 1000 nM.
The value for `CC(=O)c1nn(CC(=O)N2[C@H]3C[C@@]4(C=CCCCN(C)S(=O)(=O)Cc5ccc(Br)nc5NC3=O)C[C@@H]24)c2ccc(-c3cnc(C)nc3)cc12` [US11053253, Cmp No. T-215] was under 1000 nM; that for `CC(=O)c1nn(CC(=O)N2[C@H]3C[C@]4(C[C@@H]24)Cn2ccc(n2)/C=C/COCc2ccc(Br)nc2NC3=O)c2cnc(-c3cnc(C)nc3)cc12` [US11053253, Cmp No. T-68] was under 1000 nM.
